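In this assay, cells in 96-well plates receive the compound at five concentrations for 48 hours. Endpoints are linearly interpolated between the surrounding concentrations. At the GI50, growth is halved. TGI denotes the concentration required for complete inhibition of growth.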
Experiments:
Experiment in all cases: NCI-60 cell line screen, 48 h
ACHN renal = test system: ACHN renal
EKVX NSCLC = test system: EKVX NSCLC
HCC-2998 colon = test system: HCC-2998 colon
HS 578T breast = test system: HS 578T breast
NCI-H460 lung = test system: NCI-H460 lung
NCI-H522 lung = test system: NCI-H522 lung
RPMI-8226 leukemia = test system: RPMI-8226 leukemia
SF-295 CNS = test system: SF-295 CNS
UACC-62 melanoma = test system: UACC-62 melanoma
HOP-92 NSCLC = test system: HOP-92 NSCLC

SMILES	GI50 (ACHN renal) [µM]	TGI (ACHN renal) [µM]	GI50 (EKVX NSCLC) [µM]	TGI (EKVX NSCLC) [µM]	GI50 (HCC-2998 colon) [µM]	TGI (HS 578T breast) [µM]	GI50 (NCI-H460 lung) [µM]	GI50 (NCI-H522 lung) [µM]	TGI (NCI-H522 lung) [µM]	GI50 (RPMI-8226 leukemia) [µM]	TGI (RPMI-8226 leukemia) [µM]	GI50 (SF-295 CNS) [µM]	TGI (SF-295 CNS) [µM]	GI50 (UACC-62 melanoma) [µM]	TGI (UACC-62 melanoma) [µM]	TGI (HCC-2998 colon) [µM]	TGI (HOP-92 NSCLC) [µM]	TGI (NCI-H460 lung) [µM]	GI50 (HOP-92 NSCLC) [µM]
COc1cc2c(c(OC)c1OC)-c1ccc(NNC(N)=S)c(=O)cc1[C@@H](NC(C)=O)CC2	7.19	> 100	3.67	> 100	0.263	> 100	0.397	0.55	> 100	0.39	> 29.4	0.63	> 100	0.666	> 100				
COc1cc2ccnc([C@@H](OC(=O)c3ccccc3)c3ccc(OC)c(OC)c3OC)c2cc1OC		> 100		> 100					> 100		> 100		> 100		> 100	> 100	> 100	> 100	
CCN(CC)CCSc1c2ccccc2nc2cc(NCC(=O)Nc3ccccc3-c3ccccc3NC(=O)CNc3ccc4c(SCCN(CC)CC)c5ccccc5nc4c3)ccc12		> 100		> 100					> 100		> 100		> 100		> 100	> 100	> 100	> 100	
O=C(Nc1nc2ccc([N+](=O)[O-])cc2s1)C(=O)C(C1OC(=O)c2ccccc21)[N+](=O)[O-] (configuration not stated)		> 100		> 100							> 100		> 100		> 100	> 100	82.9	> 100	
C1=C2/CC[C@H](Sc3ccccc3)C2C2(CCCCC/1)OCCO2 (some centres not stated)		85.9		> 100							73.7		> 100		64.5	67.9	29.6	73.9	
O=C(O)CCC(NC(=O)c1ccc(Nc2nc3ccccc3nc2-c2cccs2)cc1)C(=O)O (configuration not stated)		> 100		> 100					> 100		> 100		> 100		> 100	> 100	> 100	> 100	
CCC[CH2][Sn]([CH2]CCC)([S]c1cccc2cccnc12)[S]c1cccc2cccnc12	0.193	0.396	0.336	1.45	0.144		0.151					0.404	1.39	0.279	0.959	0.3		0.356	
CCn1c(C)nn2c(=O)c3ccccc3nc2c1=O		> 100		> 100							> 100		> 100		> 100	> 100	> 100	> 100	
Nc1ccccc1S(=O)(=O)N(CC(=O)O)c1ccccc1		> 100		> 100					> 100		> 100				> 100		> 100	> 100	
Cc1ccc([N+](=O)[O-])cc1NC1=NCCO1		> 100		> 100		> 100			> 100		> 100		> 100		> 100	> 100		> 100	
Cc1cc(NS(=O)(=O)c2ccc(Nc3c4ccccc4nc4c(C(=O)N5CCN(CCOS(C)(=O)=O)CC5)cccc34)cc2)no1		> 100									> 100		> 100		> 100	> 100	> 100	> 100	
Cc1nc2c(ccc3ncccc32)[nH]1		> 100		> 100					> 100		> 100		> 100		> 100	> 100	> 100	> 100	
COC(=O)/C(C#N)=C1\NC(=O)c2ccccc21		> 100		> 100					> 100		> 100		> 100		> 100	> 100	> 100	> 100	
Cc1c(C(=O)C/C(=N/NC(=O)c2ccccc2O)C(=O)Nc2ccccc2C(C)C)[n+](=O)c2ccccc2n1[O-]		> 100		> 100					65.8				> 100		77.7	> 100		> 100	
Cc1cc(N(CCC#N)CCC#N)ccc1N=Nc1ccc(S(N)(=O)=O)cc1		> 100		> 100					> 100		> 100		> 100		> 100	> 100			
COC(=O)c1ccccc1NC(=O)C(=O)Cc1nc2c3c(ccc2[nH]c1=O)C(=O)c1ccccc1C3=O		> 100		82.1					35.7		> 100				20.4	43	92.9	> 100	
COc1ccc2c(c1)sc1nc(-c3ccccc3)c(-c3cccc4ccccc34)n12	0.76	> 100	1.61	> 100	1.53	> 100	0.416	0.661	28.2	0.99	27.4	0.415		0.414	> 100	36.6		> 35.2	
CC1(C(=O)O)CCC[C@@]2(C)C1CC[C@@]1(C)c3cocc3CCC21 (some centres not stated)		> 100		> 100							> 100		> 100		> 100	> 100	> 100	> 100	
CC1(C)C(=O)/C=C\C(=O)C(C)(C)C2=CC=C(O2)C(C)(C)C(=O)/C=C\C(=O)C(C)(C)C2=CC=C1O2		> 100		> 100					> 100				> 100			> 100	> 100	> 100	
C=CCO[C@H]1CO[C@H]2[C@@H]1OC[C@@H]2Oc1ccc(Nc2ccnc(Nc3ccc(O[C@H]4CO[C@H]5[C@@H]4OC[C@@H]5OCC=C)c(Cl)c3)n2)cc1Cl	1.77	3.31	1.69	3.15	1.94		1.76	1.96	4.24			1.85	3.49	1.81	3.32	3.43	3.3	3.35	1.66
CCOC(=O)CCC1(C(=O)OCC)CCCCC1=O (configuration not stated)		> 100		> 100					> 100		> 100		> 100			> 100	> 100	> 100	
CO/C(=N\N=C\c1ccc(C(F)(F)F)cc1)c1ccncc1		> 10		> 10					> 10		> 10		> 10			> 10	> 10	> 10	
COC(CCC[N+](C)(C)C)CC[N+](C)(C)C (configuration not stated)		> 100		> 100					> 100		> 100		> 100		> 100	> 100		> 100	
